These results are taken from patent publication US20240166652A1, “MODULATORS OF THE INTEGRATED STRESS PATHWAY” (Calico Life Sciences LLC, priority 2017, published 2024).

This experiment relates to ATF4 luciferase reporter in HEK293T cells. Briefly: ATF4-Luc assay (ATF4 luciferase reporter, tunicamycin-treated HEK293T cells). It is filed as cell-based, human. As to conditions: Homo sapiens, HEK-293T; HEK293T cells carrying the ATF4 luciferase reporter, 1 μg/mL tunicamycin, 7 hours. In general terms: A reporter such as luciferase makes a cellular process visible.

A word on the EC50: it is the concentration at which the effect is half-maximal. Turning to `O=C(COc1ccc(F)cc1)NC12CCC(NC(=O)COc3ccc(Cl)c(F)c3)(CC1)[C@@H](O)C2` [Compound 619, 2-(4-chloro-3-fluorophenoxy)-N-{(2S)-4-[2-(4-fluorophenoxy)acetamido]-2-hydroxybicyclo[2.2.2]octan-1-yl}acetamide], the EC50 is < 0.01 µM.
Next, `O=C(COc1ccc(Cl)c(F)c1)NC12CC(NCCCOc3ccc(Cl)c(F)c3)(C1)C2` [Compound 705, 2-(4-chloro-3-fluorophenoxy)-N-(3-{[3-(4-chloro-3-fluorophenoxy)propyl]amino}bicyclo[1.1.1]pentan-1-yl)acetamide]: 0.01 to 0.05 µM; `O=C(COc1ccc(Cl)c(F)c1)NC12CCC(NC(=O)COc3nc4ccccc4s3)(CC1)[C@@H](O)C2` [Compound 512, 2-[(1,3-benzothiazol-2-yl)oxy]-N-{(2S)-4-[2-(4-chloro-3-fluorophenoxy)acetamido]-2-hydroxybicyclo[2.2.2]octan-1-yl}acetamide]: > 2 µM.
Next, `Cc1n[nH]c2cc(OCC(=O)NC34CCC(NC(=O)COc5ccc(Cl)c(F)c5)(CC3)C[C@@H]4O)ccc12` [Compound 749, 2-(4-chloro-3-fluorophenoxy)-N-[(3S)-3-hydroxy-4-{2-[(3-methyl-1H-indazol-6-yl)oxy]acetamido}bicyclo[2.2.2]octan-1-yl]acetamide]: < 0.01 µM; `O=C(CCCOc1cccc(Cl)c1)NC12CC(NC(=O)COc3ccc(Cl)c(F)c3)(C1)C2` [Compound 148, N-{3-[2-(4-chloro-3-fluorophenoxy)acetamido]bicyclo[1.1.1]pentan-1-yl}-4-(3-chlorophenoxy)butanamide]: 0.05 to 0.25 µM; `Cc1ccc(CCOCC(=O)NC23CC(NC(=O)COc4ccc(Cl)c(Cl)c4)(C2)C3)cc1` [Compound 154, 2-(3,4-dichlorophenoxy)-N-(3-{2-[2-(4-methylphenyl)ethoxy]acetamido}-bicyclo[1.1.1]pentan-1-yl)acetamide]: 0.25 to 0.5 µM.
As to `O=C(COc1ccc(Cl)c(Cl)c1)NC12CC(NC(=O)NCc3cccc(F)c3)(C1)C2` [Compound 451, 2-(3,4-dichlorophenoxy)-N-[3-({[(3-fluorophenyl)methyl]carbamoyl}amino)bicyclo[1.1.1]pentan-1-yl]acetamide], the EC50 was > 2 µM.
Turning to `O=C(COc1ccc(Cl)c(F)c1)NC12CC(NC(=O)COc3cnc(C(F)(F)F)cn3)(C1)C2` [Compound 107, 2-(4-chloro-3-fluorophenoxy)-N-[3-(2-{[5-(trifluoromethyl)pyrazin-2-yl]oxy}acetamido)bicyclo[1.1.1]pentan-1-yl]acetamide], the EC50 is 0.05 to 0.25 µM.
Turning to `O=C(COc1ccc(Cl)c(F)c1)NC1CCC2(NC(=O)COc3ccc(Cl)c(F)c3)CCC1C2` (stereo not shown) [Compound 573, N,N′-(bicyclo[3.2.1]octane-1,4-diyl)bis[2-(4-chloro-3-fluorophenoxy)acetamide]], the EC50 was < 0.01 µM.
`O=C(COc1ccc(C(F)(F)F)c(F)c1)NC12CCC(NC(=O)COc3ccc(F)cc3)(CC1)[C@@H](O)C2` [Compound 844, 2-(4-fluorophenoxy)-N-[(2S)-4-{2-[3-fluoro-4-(trifluoromethyl)phenoxy]acetamido}-2-hydroxybicyclo[2.2.2]octan-1-yl]acetamide]: the EC50 is < 0.01 µM.
For `COc1ccc(OCC(=O)NC23CCC(NC(=O)COc4ccc(Cl)c(F)c4)(CC2)[C@@H](O)C3)cn1` [Compound 651, 2-(4-chloro-3-fluorophenoxy)-N-[(2S)-2-hydroxy-4-{2-[(6-methoxypyridin-3-yl)oxy]acetamido}bicyclo[2.2.2]octan-1-yl]acetamide] the value was < 0.01 µM; for `N#Cc1ccc(OCC(=O)NC23CC(NC(=O)COc4ccc(Cl)c(F)c4)(C2)C3)nc1` [Compound 215, 2-(4-chloro-3-fluorophenoxy)-N-(3-{2-[(5-cyanopyridin-2-yl)oxy]acetamido}bicyclo[1.1.1]pentan-1-yl)acetamide], 0.05 to 0.25 µM; for `CO[C@@H]1C[C@]2(NC(=O)COc3ccc(Cl)c(F)c3)CC[C@@]1(NC(=O)COc1ccc(Cl)c(F)c1)CC2=O` (racemic) [Compound 556, rac-N,N′-[(1R,2R,4R)-2-methoxy-5-oxobicyclo[2.2.2]octane-1,4-diyl]bis[2-(4-chloro-3-fluorophenoxy)acetamide]], 0.01 to 0.05 µM.
`O=C(COCCc1ccc(Cl)cc1)NC12CC(NC(=O)COc3ccc(Cl)c(Cl)c3)(C1)C2` [Compound 155, 2-[2-(4-chlorophenyl)ethoxy]-N-{3-[2-(3,4-dichlorophenoxy)acetamido]bicyclo-[1.1.1]pentan-1-yl}acetamide]: the EC50 fell in the range of 0.01 to 0.05 µM.
As for `COc1cc(OCC(=O)NC23CCC(NC(=O)COc4ccc(Cl)c(F)c4)(CC2)[C@@H](O)C3)ccc1Cl` [Compound 465, 2-(4-chloro-3-fluorophenoxy)-N-{(2S)-4-[2-(4-chloro-3-methoxyphenoxy)acetamido]-2-hydroxybicyclo[2.2.2]octan-1-yl}acetamide], the EC50 was < 0.01 µM.
For `Cc1ccc(OCC(=O)NC23CC(NC(=O)COc4ccc(Cl)c(F)c4)(C2)C3)c(F)n1` [Compound 245, 2-(4-chloro-3-fluorophenoxy)-N-(3-{2-[(2-fluoro-6-methylpyridin-3-yl)oxy]acetamido}bicyclo[1.1.1]pentan-1-yl)acetamide] the value was 0.01 to 0.05 µM; for `Cc1cc(OCC(=O)NC23CCC(NC(=O)COc4ccc(F)c(F)c4)(CC2)[C@@H](O)C3)ccc1F` [Compound 815, 2-(3,4-difluorophenoxy)-N-{(2S)-4-[2-(4-fluoro-3-methylphenoxy)acetamido]-2-hydroxybicyclo[2.2.2]octan-1-yl}acetamide], < 0.01 µM.
For `O=C(COc1ccc(Cl)c(F)c1)NC12CCC(NC(=O)COc3ccc(Cl)c(F)c3)(CC1)[C@@H](O)[C@@H]2O` (racemic) [Compound 745, rac-N,N′-[(2R,3R)-2,3-dihydroxybicyclo[2.2.2]octane-1,4-diyl]bis[2-(4-chloro-3-fluorophenoxy)acetamide]] the value was < 0.01 µM.
For `O=C(COc1ccc(Cl)c(F)c1)NC12CC(NCc3ccccc3)(C1)C2` [Compound 551, N-[3-(benzylamino)bicyclo[1.1.1]pentan-1-yl]-2-(4-chloro-3-fluorophenoxy)acetamide] the value was 0.5 to 2 µM; for `O=C(COc1cccc(C(F)(F)F)n1)NC12CCC(NC(=O)COc3ccc(Cl)cc3)(CC1)[C@@H](O)C2` [Compound 825, 2-(4-chlorophenoxy)-N-[(2S)-2-hydroxy-4-(2-{[6-(trifluoromethyl)pyridin-2-yl]oxy}acetamido)bicyclo[2.2.2]octan-1-yl]acetamide], 0.05 to 0.25 µM; for `CC(=O)c1ccc(OCC(=O)NC23CCC(NC(=O)COc4ccc(Cl)c(F)c4)(CC2)C[C@@H]3O)cc1` [Compound 511, 2-(4-acetylphenoxy)-N-{(2S)-4-[2-(4-chloro-3-fluorophenoxy)acetamido]-2-hydroxybicyclo[2.2.2]octan-1-yl}acetamide], 0.01 to 0.05 µM.
For `O=C(COc1ccc(Cl)c(F)c1)NC12CCC(NC(=O)COc3cccnc3)(CC1)[C@@H](O)C2` [Compound 495, 2-(4-chloro-3-fluorophenoxy)-N-[(3S)-3-hydroxy-4-{2-[(pyridin-3-yl)oxy]acetamido}bicyclo[2.2.2]octan-1-yl]acetamide], the EC50 lay within 0.01 to 0.05 µM.
Regarding `O=C(COc1ccc(OC(F)(F)F)c(F)c1)NC12CCC(NC(=O)COc3ccc(Cl)c(F)c3)(CC1)[C@@H](O)C2` [Compound 761, 2-(4-chloro-3-fluorophenoxy)-N-[(2S)-4-{2-[3-fluoro-4-(trifluoromethoxy)phenoxy]acetamido}-2-hydroxybicyclo[2.2.2]octan-1-yl]acetamide], the concentration for a half-maximal effect (EC50) is < 0.01 µM.
Next, `O=C(COc1ccc(Cl)cc1)NC12CCC(NC(=O)COc3ccc(Cl)cc3)(CC1)[C@@H](O)C2` [Compound 540, N,N′-[(2S)-2-hydroxybicyclo[2.2.2]octane-1,4-diyl]bis[2-(4-chlorophenoxy)acetamide]]: < 0.01 µM; `O=C(O)/C=C1\CC2(NC(=O)COc3ccc(Cl)c(F)c3)CCC1(NC(=O)COc1ccc(Cl)c(F)c1)CC2` [Compound 669, (2E)-{1,4-bis[2-(4-chloro-3-fluorophenoxy)acetamido]bicyclo[2.2.2]octan-2-ylidene}acetic Acid]: 0.05 to 0.25 µM.
Regarding `CN(C(=O)COc1ccc(Cl)c(Cl)c1)C12CC(NC(=O)COc3ccc(F)c(Cl)c3)(C1)C2` [Compound 197, N-{3-[2-(3-chloro-4-fluorophenoxy)acetamido]bicyclo[1.1.1]pentan-1-yl}-2-(3,4-dichlorophenoxy)-N-methylacetamide], the EC50 is 0.05 to 0.25 µM.
For `O=C(COc1ccc(F)c(C(F)(F)F)c1)NC12CCC(NC(=O)COc3ccc(Cl)c(F)c3)(CC1)[C@@H](O)C2` [Compound 848, 2-(4-chloro-3-fluorophenoxy)-N-[(2S)-4-{2-[4-fluoro-3-(trifluoromethyl)phenoxy]acetamido}-2-hydroxybicyclo[2.2.2]octan-1-yl]acetamide] the value was < 0.01 µM.
For `O=C(/C=C/c1ccccn1)NC12CC(NC(=O)COc3ccc(Cl)c(F)c3)(C1)C2` [Compound 349, (2E)-N-{3-[2-(4-chloro-3-fluorophenoxy)acetamido]bicyclo[1.1.1]pentan-1-yl}-3-(pyridin-2-yl)prop-2-enamide] the value was 0.5 to 2 µM; for `CNC(CC(=O)NC12CCC(NC(=O)COc3ccc(Cl)c(F)c3)(CC1)[C@@H](O)C2)c1ccc(Cl)cc1` (stereo partly drawn) [Compound 712, N-{(3S)-4-[2-(4-chloro-3-fluorophenoxy)acetamido]-3-hydroxybicyclo[2.2.2]octan-1-yl}-3-(4-chlorophenyl)-3-(methylamino)propanamide], 0.5 to 2 µM; for `O=C(COc1ccc(Cl)c(F)c1)NC12CCC(NC(=O)COc3ccc(Cl)c(F)c3)(CC1)C(NC1(CO)COC1)C2` (stereo not shown) [Compound 701, N,N′-(2-{[3-(hydroxymethyl)oxetan-3-yl]amino}bicyclo[2.2.2]octane-1,4-diyl)bis[2-(4-chloro-3-fluorophenoxy)acetamide]], 0.01 to 0.05 µM.
Regarding `O=C(COc1ccc(Cl)c(F)c1)NC12CC(NC(=O)Nc3ccc(Cl)cc3)(C1)C2` [Compound 431, 2-(4-chloro-3-fluorophenoxy)-N-(3-{[(4-chlorophenyl)carbamoyl]amino}bicyclo[1.1.1]pentan-1-yl)acetamide], the EC50 fell in the range of 0.05 to 0.25 µM.
